Results on five compounds are retold here after US6824967B2, “Method of preparing dye solution, and methods of producing silver halide emulsion and silver halide photographic material” (Fuji Photo Film Co., Ltd., priority 2002, dated 2004).

For data set [1] the following is noted: pKa printed beside the base in Table 1; cited from earlier work.
The nature of data set [2]: Degree of dissolution of dye, visual observation after ultrasonic irradiation. Format: physicochemical. The arrangement: key: good: when it was in a completely dissolved state; poor: when it left some residue; failed: when it was in a hardly dissolved state. The conditions noted are these: 1.0 g dye in 200 ml 1:1 methanol/water, ultrasonic 30 min at 25° C.
Data set [3] can be described thus: pH value of dye solution measured with a pH-meter. The data set is classed as physicochemical. The conditions noted are these: 1.0 g dye in 200 ml 1:1 methanol/water.
Setting [4] is: 1,8-diazabicyclo-7-undecene, 1.0 equivalents to dye.
Where [5] appears, read: N,N-diisopropylethylamine, 1.0 equivalents to dye.
The mark [6] stands for this setting: pyridine, 1.0 equivalents to dye.
Where [7] appears, read: triethanolamine, 1.0 equivalents to dye.
Setting [8] is: triethanolamine, 1.2 equivalents to dye.
The mark [9] stands for this setting: triethylamine, 0.8 equivalents to dye.
Setting [10] is: triethylamine, 1.0 equivalents to dye.
Where [11] appears, read: 2,4,6-trimethylpyridine, 1.0 equivalents to dye.
Where [12] appears, read: N-methylmorpholine, 1.0 equivalents to dye.

As to `Cc1cc(C)nc(C)c1` [2,4,6-Trimethylpyridine], in data set [1], the “Base (pKa)” value is 2,4,6-trimethylpyridine (7.43).

For the compound `O=C(O)C[n+]1c(C=C2Sc3ccc(Cl)cc3N2CCCS(=O)(=O)[O-])sc2ccc(Cl)cc21` [Dye S-14], the Degree of dissolution result in data set [2] (setting [4]) is “good”; in data set [2] (setting [5]), “good”; in data set [2] (base absent) it was “failed”; in data set [2] (setting [6]) it was “failed”; in data set [2] (setting [7]), “good”; in data set [2] (setting [8]) it was “good”. For the same compound, the Degree of dissolution entry in data set [2] (setting [9]) is recorded as “poor”; in data set [2] (setting [10]) it was “good”. In addition, the “pH Value of dye solution” value in data set [3] (setting [4]) is on record as 10.8; in data set [3] (setting [5]) it was 10.1; in data set [3] (base absent), 6.1; in data set [3] (setting [6]), 5.7; in data set [3] (setting [7]), 7.3; in data set [3] (setting [8]) it was 7.4. For the same compound, the “pH Value of dye solution” value is recorded as 6.9 in data set [3] (setting [9]) and 9.4 in data set [3] (setting [10]).

On to `O=C(O)C[n+]1c(C=C2Sc3ccc(Cl)cc3N2CCCS(=O)(=O)[O-])sc2cc(Cl)sc21` [Dye S-37], for which the Degree of dissolution entry in data set [2] (setting [4]) is “good”; in data set [2] (setting [11]), “good”; in data set [2] (setting [12]) it was “good”; in data set [2] (base absent), “failed”; in data set [2] (setting [7]), “good”; in data set [2] (setting [8]), “good”. Also, the Degree of dissolution result in data set [2] (setting [9]) is recorded as “poor”; in data set [2] (setting [10]), “good”. Further, the “pH Value of dye solution” value in data set [3] (setting [4]) came to 11.0; in data set [3] (setting [11]), 7.2; in data set [3] (setting [12]) it was 7.1; in data set [3] (base absent) it was 6.2; in data set [3] (setting [7]) it was 7.4; in data set [3] (setting [8]), 7.5. The “pH Value of dye solution” value in data set [3] (setting [9]) turned out to be 7.1; in data set [3] (setting [10]), 9.6.

Regarding `O=C(O)C[n+]1c(C=C2Sc3ccc(Br)cc3N2CCCS(=O)(=O)[O-])sc2ccsc21` [Dye S-39], the Degree of dissolution result in data set [2] (base absent) was “failed”; in data set [2] (setting [7]), “good”; in data set [2] (setting [8]), “good”; in data set [2] (setting [9]), “poor”; in data set [2] (setting [10]), “good”. The “pH Value of dye solution” value came to 6.3 in data set [3] (base absent); 7.5 in data set [3] (setting [7]); 7.6 in data set [3] (setting [8]); 7.4 in data set [3] (setting [9]); 9.7 in data set [3] (setting [10]).

For the compound `CN1CCOCC1` [N-methylmorpholine], in data set [1], the “Base (pKa)” value was “N-methylmorpholine (7.38)”.
